The results in this text go back to ChEMBL document CHEMBL1201862, “PubChem BioAssay data set” (2004).

The nature of assay [1]: inhibitors of TNFa-stimulated NF-kB luciferase reporter, dose response, selectivity assay for EBV LMP1 NF-kB inhibitor project, HEK293 LMP1 reporter cells, dry powder, set 2 (AID 624369). It is filed as functional.
Assay [2] in a line: LMP1-driven NF-kB reporter inhibition, dose response, cell-based, luciferase reporter, luminescence, dry powder, set 2 (AID 624376). It is filed as functional. In general terms: A reporter such as luciferase makes a cellular process visible.
Assay [3] concerns the target Beta-lactamase (Salmonella choleraesuis (strain SC-B67), UniProt Q5J463). The assay is described as follows: Epi-absorbance-based counterscreen for selective VIM-2 inhibitors: dose response biochemical high throughput screening assay to identify inhibitors of TEM-1 serine-beta-lactamase.
The target in assay [4] is T1, Beta-lactamase (Pseudomonas aeruginosa, UniProt Q79MP6). The assay is described as follows: IMP-1 metallo-beta-lactamase inhibitors, dose response, selectivity assay for VIM-2 inhibitor project, biochemical, epi-absorbance (AID 1920).
For assay [5], the target named is T1, Beta-lactamase. The assay is described as follows: […] counterscreen for selective VIM-2 inhibitors: dose response biochemical high throughput screening assay to identify inhibitors of IMP-1 metallo-beta-lactamase. A general note: A counterscreen serves to expose hits that act by an unwanted route or on another target.
For assay [6], the system named is BHK-21. Kind of assay: BHK-21 cell toxicity, dose response, cytotoxicity control, plate reader, cherry-pick samples (AID 687030). It is filed as functional, cell-based. As to conditions: Mesocricetus auratus.
Assay [7] addresses T2, Mitochondrial peptide methionine sulfoxide reductase (Bos taurus, UniProt P54149).
T2 sequence (P54149 whole entry): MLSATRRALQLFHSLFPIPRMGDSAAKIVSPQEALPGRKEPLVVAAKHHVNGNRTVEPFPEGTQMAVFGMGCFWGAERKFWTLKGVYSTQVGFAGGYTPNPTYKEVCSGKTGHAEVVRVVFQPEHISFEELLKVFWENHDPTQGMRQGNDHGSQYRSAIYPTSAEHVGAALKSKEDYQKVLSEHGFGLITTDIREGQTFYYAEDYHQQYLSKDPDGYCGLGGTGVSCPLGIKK
It is filed as functional.

For assay [8], the system named is H9c2. Kind of assay: cells. It is filed as functional, cell-based. To be noted: Rattus norvegicus, H9c2, Myocardium.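 Also: confirmatory concentration-response retest of ultra-high-throughput screening hits for modulation of myocardial damage; cell death induced by hydrogen peroxide oxidative stress; compound pretreatment for 60 min then peroxide exposure for 2 h; potency is for protecting the cells against peroxide damage rather than for killing them.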
Assay [9] addresses T3, ATP-dependent translocase ABCB1 (Homo sapiens, UniProt P08183). The assay is described as follows: ABCG2 efflux pump inhibitor potency, dose response, Ig-MXP3 cells, JC-1, flow cytometry, set 2 (AID 504566).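 Also: flow cytometry median green fluorescence of retained JC-1 dye; potency of efflux pump inhibition measured as rising substrate retention.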 It is filed as functional. As to conditions: read-out: EC50_MICROM_. A general note: A flow cytometer gives signals particle by particle.
The target of assay [10] is T3, ATP-dependent translocase ABCB1. Kind of assay: ABCB1 efflux inhibitor potency, dose response, Jurkat-DNR cells, JC-1, flow cytometry, set 2 (AID 504569).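 Also: potency of pump inhibitors that raise cellular JC-1 green fluorescence up to the nicardipine level.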 Type of assay: functional. To be noted: read-out: EC50_MICROM_.
Assay [11] concerns the target Eukaryotic translation initiation factor 4E (Mus musculus, UniProt P63073). Kind of assay: eIF4E–eIF4G protein interaction inhibitors, dose response, biochemical, TR-FRET (AID 855).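 Also: potency for disrupting eIF4E binding to eIF4GI seen as loss of FRET.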 It is filed as functional.
Assay [12] has as its target T4, Carboxy-terminal domain RNA polymerase II polypeptide A small phosphatase 1 (Homo sapiens, UniProt Q9GZU7).
T4 sequence (Q9GZU7 whole entry): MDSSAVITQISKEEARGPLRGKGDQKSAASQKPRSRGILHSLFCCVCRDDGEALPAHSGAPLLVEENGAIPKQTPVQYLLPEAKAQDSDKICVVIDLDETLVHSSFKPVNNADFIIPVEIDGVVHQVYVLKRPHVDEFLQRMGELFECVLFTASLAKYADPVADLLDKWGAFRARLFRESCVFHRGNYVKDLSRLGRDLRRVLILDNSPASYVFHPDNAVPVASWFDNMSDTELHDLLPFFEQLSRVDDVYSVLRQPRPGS
Kind of assay: inhibitors of CTDSP1, concentration-response testing, biochemical assay, absorbance-based, actives from ultra-high-throughput screening (AID 540297). It is filed as functional.

The target in assay [13] is Tyrosine-protein phosphatase non-receptor type 11 (Homo sapiens, UniProt Q06124). The assay is described as follows: SHP2 phosphatase inhibition, dose response, selectivity assay for STEP inhibitor project, biochemical (AID 602367). Type of assay: functional. As to conditions: read-out: IC50_Mean.
Assay [14] concerns the target Tyrosine-protein phosphatase non-receptor type 5 (Homo sapiens, UniProt P54829). Kind of assay: STEP phosphatase inhibitors, confirmation, biochemical, fluorescence intensity, uHTS hits (AID 602372). Type of assay: functional. To be noted: read-out: IC50_Mean.
Assay [15] deals with Dual specificity protein phosphatase 3 (Homo sapiens, UniProt P51452). The assay is described as follows: VHR phosphatase inhibition, dose response, selectivity assay for STEP inhibitor project, biochemical (AID 602374). Type of assay: functional. As to conditions: read-out: IC50_Mean.
The target of assay [16] is T5, Tyrosine-protein phosphatase non-receptor type 22 (Homo sapiens, UniProt Q9Y2R2).
T5 sequence (Q9Y2R2 whole entry): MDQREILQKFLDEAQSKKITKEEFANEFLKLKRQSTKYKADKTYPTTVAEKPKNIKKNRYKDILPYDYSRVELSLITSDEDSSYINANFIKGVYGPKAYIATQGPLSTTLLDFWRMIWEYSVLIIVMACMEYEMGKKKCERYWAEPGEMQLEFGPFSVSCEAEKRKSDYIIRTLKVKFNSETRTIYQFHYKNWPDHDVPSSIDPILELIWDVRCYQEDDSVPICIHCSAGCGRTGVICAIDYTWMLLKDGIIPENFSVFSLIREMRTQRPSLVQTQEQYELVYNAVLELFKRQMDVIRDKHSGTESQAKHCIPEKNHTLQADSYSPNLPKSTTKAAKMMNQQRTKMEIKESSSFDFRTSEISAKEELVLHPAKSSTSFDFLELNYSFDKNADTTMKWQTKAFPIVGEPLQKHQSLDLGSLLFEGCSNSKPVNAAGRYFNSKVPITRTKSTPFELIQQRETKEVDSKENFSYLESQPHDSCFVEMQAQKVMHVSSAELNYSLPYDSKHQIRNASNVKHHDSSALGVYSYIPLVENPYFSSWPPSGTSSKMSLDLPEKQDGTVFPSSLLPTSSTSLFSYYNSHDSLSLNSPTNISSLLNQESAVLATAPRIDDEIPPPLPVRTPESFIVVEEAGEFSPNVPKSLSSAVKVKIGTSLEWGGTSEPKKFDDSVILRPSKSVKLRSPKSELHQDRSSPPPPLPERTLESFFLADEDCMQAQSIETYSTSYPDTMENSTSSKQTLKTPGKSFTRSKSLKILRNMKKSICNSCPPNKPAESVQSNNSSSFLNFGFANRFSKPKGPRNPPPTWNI
Kind of assay: PTPN22 phosphatase inhibition, dose response, selectivity assay for STEP inhibitor project, biochemical (AID 624241). Type of assay: functional.

Assay [17] has as its target T2, Mitochondrial peptide methionine sulfoxide reductase. Kind of assay: Absorbance-based biochemical high throughput dose response assay for activators of Methionine sulfoxide reductase A (MsrA). Type of assay: functional.
Assay [18] concerns the target SWI/SNF-related matrix-associated actin-dependent regulator of chromatin subfamily A member 2 (Homo sapiens, UniProt P51531). The assay is described as follows: Luminescence-based cell-based high throughput dose response assay to identify activators of the function of SWI/SNF related, matrix associated, actin dependent regulator of chromatin, subfamily a, member 2 (SMARCA2, BRM). Type of assay: functional.

Assay [19] is described as follows: Counterscreen for activators of the function of SWI/SNF related, matrix associated, actin dependent regulator of chromatin, subfamily a, member 2 (SMARCA2, BRM): Luminescence-based cell-based high throughput dose response assay to identify non-selective compounds using the VP16 reporter assay. Type of assay: functional.
For assay [20], the target named is T6, DNA repair protein RAD52 homolog (Homo sapiens, UniProt P43351).
T6 sequence (P43351 whole entry): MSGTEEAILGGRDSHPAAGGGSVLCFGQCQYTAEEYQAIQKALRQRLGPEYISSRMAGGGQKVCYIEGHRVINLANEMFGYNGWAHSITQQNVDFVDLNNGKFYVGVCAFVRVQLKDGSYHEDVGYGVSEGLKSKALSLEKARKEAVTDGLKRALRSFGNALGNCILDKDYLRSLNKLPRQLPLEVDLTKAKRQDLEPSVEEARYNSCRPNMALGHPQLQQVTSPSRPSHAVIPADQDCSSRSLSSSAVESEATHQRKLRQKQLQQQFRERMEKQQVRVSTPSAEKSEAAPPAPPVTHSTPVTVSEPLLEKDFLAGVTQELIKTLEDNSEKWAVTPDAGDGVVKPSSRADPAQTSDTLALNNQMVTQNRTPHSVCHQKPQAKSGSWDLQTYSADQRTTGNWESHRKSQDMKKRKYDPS
Type of assay: functional, biochemical.

Assay [21] relates to HEK293. The assay is described as follows: cells. As to conditions: Homo sapiens.
Assay [22] deals with HEK293. The assay is described as follows: cells. To be noted: Homo sapiens. This is another data set of the same source.
Assay [23] concerns HeLa. Kind of assay: HeLa cell cytotoxicity, dose response, cytotoxicity control, ATP luminescence, cherry-pick samples (AID 687004). As to conditions: Homo sapiens. It is filed as functional, cell-based.
Assay [24] in a line: miR-122 activators in hepatoma reporter cells, dose response, cell-based, Huh7 psiCHECK-miR122, Renilla luciferase, cherry-picked (AID 651956).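 Also: huh7 hepatoma cells stably carrying a psiCHECK-2 miR-122 sensor plasmid; renilla luciferase signal reporting endogenous miR-122 activity after 48 h compound exposure.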 Type of assay: functional.
Assay [25] can be described thus: HEK293T cytotoxicity, dose response, cytotoxicity control for miR-122 modulator project, cell-based, activator set, cherry-pick (AID 720690).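 Also: HEK293T human cells scored for general mammalian cytotoxicity.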 It is filed as functional.
The nature of assay [26]: NIH/3T3 fibroblast cytotoxicity, dose response, cytotoxicity control for T. cruzi growth inhibitor project, cell-based, cherry-pick samples, set 2 (AID 651817). Type of assay: functional. As to conditions: NIH3T3.
A short description of assay [27]: human group III sPLA2 inhibitors, dose response, biochemical, QFRET, IC50 (AID 743457).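 Also: green fluorescence rise as the enzyme cleaves BODIPY PC-A2 in liposomes; potency for inhibition of the enzyme.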
The target in assay [28] is Albumin (Bos taurus, UniProt P02769). The assay is described as follows: Counterscreen for inhibitors of T-cell receptor (TCR)-CD3 interaction: Fluorescence-based biochemical high throughput dose response assay to identify inhibitors of T-cell receptor (TCR)-CD3 interaction using a TAMRA-labeled BSA probe. Type of assay: functional.
A short description of assay [29]: A549 cell cytotoxicity, dose response, cytotoxicity control, plate reader, cherry-pick, antagonist series (AID 743412). Type of assay: functional, cell-based.
The nature of assay [30]: LGR2 antagonists, dose response, cell-based, HEK293, CRE-luciferase reporter, cherry pick (AID 743342). Type of assay: functional.
Assay [31] is described as follows: MC4R antagonists, dose response, counter-screen for LGR2 antagonist project, cell-based, plate reader, cherry pick (AID 743444).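 Also: transfected HEK 293 cells stimulated with alpha-MSH peptide; potency of inhibitors of the alpha-MSH evoked signal.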 Type of assay: functional.

Activity calls are given as the source filed them.

T3 sequence (P08183 whole entry): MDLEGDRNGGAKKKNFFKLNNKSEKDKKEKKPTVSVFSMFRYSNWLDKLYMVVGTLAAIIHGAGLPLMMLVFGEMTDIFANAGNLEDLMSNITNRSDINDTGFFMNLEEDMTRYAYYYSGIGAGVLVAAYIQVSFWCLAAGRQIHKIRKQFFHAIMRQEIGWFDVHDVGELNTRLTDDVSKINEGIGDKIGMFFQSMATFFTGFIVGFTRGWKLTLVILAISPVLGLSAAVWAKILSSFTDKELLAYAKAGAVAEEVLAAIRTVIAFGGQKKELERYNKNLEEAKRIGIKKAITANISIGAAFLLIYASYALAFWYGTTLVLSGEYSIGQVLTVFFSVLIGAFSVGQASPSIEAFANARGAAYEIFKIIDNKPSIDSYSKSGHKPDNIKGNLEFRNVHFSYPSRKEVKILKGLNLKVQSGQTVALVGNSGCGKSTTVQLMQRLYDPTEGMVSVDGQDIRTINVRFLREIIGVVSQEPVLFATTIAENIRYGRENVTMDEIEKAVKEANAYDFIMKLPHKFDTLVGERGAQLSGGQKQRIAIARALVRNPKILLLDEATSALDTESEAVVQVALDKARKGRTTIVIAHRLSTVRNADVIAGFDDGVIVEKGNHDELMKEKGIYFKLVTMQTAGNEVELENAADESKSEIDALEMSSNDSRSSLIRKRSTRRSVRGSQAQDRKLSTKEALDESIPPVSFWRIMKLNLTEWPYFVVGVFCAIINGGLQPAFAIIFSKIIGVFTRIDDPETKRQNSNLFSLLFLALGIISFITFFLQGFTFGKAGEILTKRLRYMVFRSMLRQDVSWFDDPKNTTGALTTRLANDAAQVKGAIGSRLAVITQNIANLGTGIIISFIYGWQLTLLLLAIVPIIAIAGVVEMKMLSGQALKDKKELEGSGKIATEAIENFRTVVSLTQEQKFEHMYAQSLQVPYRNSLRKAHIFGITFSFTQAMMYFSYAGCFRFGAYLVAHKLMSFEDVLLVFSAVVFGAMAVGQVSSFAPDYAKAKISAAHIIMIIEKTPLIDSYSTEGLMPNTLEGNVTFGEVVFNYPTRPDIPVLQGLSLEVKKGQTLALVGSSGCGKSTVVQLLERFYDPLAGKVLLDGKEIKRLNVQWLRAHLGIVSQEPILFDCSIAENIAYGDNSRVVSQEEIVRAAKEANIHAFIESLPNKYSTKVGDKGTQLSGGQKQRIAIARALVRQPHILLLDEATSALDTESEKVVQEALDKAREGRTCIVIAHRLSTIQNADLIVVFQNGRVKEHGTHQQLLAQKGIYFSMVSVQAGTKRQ
T1 sequence (Q79MP6 whole entry): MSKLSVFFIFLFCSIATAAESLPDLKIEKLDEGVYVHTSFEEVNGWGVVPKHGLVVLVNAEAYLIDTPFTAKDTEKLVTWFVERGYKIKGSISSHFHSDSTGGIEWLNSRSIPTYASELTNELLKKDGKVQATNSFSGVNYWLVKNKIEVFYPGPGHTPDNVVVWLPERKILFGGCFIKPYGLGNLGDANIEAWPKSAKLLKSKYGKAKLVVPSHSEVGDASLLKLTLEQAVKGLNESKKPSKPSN
Sequence of Tyrosine-protein phosphatase non-receptor type 5 (P54829 whole entry): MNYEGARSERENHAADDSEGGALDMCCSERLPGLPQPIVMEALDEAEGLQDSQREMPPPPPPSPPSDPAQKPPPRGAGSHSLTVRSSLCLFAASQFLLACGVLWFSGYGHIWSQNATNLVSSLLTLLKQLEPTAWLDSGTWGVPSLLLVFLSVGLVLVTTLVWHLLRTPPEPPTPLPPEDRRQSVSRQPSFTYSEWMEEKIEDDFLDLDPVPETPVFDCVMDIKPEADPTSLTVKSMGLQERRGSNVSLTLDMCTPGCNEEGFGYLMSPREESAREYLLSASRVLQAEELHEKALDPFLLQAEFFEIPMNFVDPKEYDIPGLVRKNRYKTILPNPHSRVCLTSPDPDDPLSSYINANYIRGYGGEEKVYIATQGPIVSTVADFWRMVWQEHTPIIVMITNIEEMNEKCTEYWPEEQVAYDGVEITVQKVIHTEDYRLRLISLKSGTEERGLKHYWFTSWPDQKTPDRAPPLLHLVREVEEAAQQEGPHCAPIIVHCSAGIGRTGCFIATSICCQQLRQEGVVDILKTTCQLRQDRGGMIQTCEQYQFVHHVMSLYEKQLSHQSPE
Sequence of Beta-lactamase (Salmonella choleraesuis (strain SC-B67), UniProt Q5J463) (Q5J463 whole entry): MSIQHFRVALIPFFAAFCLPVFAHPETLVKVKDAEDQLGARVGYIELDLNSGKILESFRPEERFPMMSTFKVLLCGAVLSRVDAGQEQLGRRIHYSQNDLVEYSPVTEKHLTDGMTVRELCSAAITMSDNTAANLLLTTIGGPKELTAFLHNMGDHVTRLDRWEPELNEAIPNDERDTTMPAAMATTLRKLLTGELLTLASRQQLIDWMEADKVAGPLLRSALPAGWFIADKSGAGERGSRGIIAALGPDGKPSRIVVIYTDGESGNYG
Sequence of Dual specificity protein phosphatase 3 (P51452 whole entry): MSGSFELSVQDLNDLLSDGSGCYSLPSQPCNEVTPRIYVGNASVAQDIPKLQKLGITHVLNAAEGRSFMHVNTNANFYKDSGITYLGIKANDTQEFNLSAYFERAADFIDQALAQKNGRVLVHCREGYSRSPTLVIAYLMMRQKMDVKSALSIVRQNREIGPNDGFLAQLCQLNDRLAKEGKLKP
Sequence of SWI/SNF-related matrix-associated actin-dependent regulator of chromatin subfamily A member 2 (P51531 whole entry): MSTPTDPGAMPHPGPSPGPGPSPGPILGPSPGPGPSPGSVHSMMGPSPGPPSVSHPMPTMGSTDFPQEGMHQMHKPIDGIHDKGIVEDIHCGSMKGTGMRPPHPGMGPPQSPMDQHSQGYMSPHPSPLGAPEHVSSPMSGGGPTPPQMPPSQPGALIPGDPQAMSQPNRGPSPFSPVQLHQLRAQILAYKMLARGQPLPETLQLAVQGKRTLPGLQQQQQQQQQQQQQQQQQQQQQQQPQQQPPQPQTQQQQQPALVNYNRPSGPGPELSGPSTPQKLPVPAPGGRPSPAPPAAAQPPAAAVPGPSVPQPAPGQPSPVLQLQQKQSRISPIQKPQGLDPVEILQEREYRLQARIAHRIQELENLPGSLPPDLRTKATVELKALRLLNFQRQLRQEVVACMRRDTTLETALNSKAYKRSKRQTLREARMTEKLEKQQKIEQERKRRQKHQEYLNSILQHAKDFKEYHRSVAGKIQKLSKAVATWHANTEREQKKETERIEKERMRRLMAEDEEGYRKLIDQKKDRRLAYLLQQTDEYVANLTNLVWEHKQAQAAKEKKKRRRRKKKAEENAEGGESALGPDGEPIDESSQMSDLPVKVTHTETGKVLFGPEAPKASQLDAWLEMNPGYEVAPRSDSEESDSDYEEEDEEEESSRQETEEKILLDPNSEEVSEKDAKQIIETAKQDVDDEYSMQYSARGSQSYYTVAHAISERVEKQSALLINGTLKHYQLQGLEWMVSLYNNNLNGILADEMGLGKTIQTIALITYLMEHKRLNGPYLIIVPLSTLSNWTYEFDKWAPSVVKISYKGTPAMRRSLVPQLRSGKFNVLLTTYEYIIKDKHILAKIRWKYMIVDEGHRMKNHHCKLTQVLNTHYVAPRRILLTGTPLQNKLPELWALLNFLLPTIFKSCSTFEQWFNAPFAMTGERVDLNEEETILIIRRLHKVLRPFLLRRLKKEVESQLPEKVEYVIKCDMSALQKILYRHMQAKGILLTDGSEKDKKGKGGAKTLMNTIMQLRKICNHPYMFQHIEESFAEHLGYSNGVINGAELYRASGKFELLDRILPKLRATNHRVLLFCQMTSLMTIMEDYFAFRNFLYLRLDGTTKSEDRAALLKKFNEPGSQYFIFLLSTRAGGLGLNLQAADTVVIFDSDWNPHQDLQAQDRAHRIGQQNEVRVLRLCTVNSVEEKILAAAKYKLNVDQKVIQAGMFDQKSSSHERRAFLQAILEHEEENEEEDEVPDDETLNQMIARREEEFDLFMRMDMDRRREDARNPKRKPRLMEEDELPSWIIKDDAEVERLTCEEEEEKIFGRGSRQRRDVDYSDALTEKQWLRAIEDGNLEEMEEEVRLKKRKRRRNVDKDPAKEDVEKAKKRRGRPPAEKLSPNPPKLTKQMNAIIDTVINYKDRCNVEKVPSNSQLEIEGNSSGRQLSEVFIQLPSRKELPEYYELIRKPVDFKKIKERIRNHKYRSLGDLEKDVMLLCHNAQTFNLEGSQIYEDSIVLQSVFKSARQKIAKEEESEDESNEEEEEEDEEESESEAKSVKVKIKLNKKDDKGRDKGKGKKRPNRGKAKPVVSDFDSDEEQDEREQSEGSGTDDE
Sequence of Tyrosine-protein phosphatase non-receptor type 11 (Q06124 whole entry): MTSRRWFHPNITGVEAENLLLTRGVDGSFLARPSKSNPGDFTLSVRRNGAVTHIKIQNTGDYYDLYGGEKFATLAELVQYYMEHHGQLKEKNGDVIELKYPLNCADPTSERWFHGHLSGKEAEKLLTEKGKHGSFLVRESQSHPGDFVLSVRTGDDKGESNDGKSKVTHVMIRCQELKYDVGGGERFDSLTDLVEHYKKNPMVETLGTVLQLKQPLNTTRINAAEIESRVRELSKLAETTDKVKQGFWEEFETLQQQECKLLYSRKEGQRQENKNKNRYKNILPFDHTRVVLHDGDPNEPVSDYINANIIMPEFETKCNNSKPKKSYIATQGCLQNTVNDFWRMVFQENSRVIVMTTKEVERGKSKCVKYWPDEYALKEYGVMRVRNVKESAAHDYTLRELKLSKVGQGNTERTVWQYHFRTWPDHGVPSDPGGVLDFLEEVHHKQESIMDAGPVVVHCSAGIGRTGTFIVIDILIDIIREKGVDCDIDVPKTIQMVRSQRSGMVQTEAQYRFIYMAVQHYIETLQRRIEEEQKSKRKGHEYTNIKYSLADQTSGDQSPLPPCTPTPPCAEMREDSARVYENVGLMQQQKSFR
Sequence of Eukaryotic translation initiation factor 4E (P63073 whole entry, the tested form may be a part): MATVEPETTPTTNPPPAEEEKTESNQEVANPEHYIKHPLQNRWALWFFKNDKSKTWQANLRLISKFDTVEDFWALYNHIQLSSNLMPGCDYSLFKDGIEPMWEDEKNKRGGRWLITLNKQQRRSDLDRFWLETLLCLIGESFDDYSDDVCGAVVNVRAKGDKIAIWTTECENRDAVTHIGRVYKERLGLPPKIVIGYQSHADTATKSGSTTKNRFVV

As for `COc1ccc(S(=O)(=O)N(C)C[C@@H]2Oc3ncc(/C=C/c4ccccc4)cc3C(=O)N([C@@H](C)CO)C[C@H]2C)cc1`, the results for the AbsAC35 in [1] and in assay [2] were 77.19 µM and 47.67 µM, respectively.

Consider `COc1ccc(-c2n[nH]c(=S)n2-c2ccc3c(c2)OCCO3)cc1OC`, for which the IC50 in [3], in assay [4] and in [5] was > 59.6 µM (inactive) throughout.

As a reminder, the AC50 is the concentration at which the activity in the assay is half-maximal. In the case of `CCN(CC)CC(=O)N1CCCC(N2CCN(c3cccc(C(F)(F)F)c3)CC2)C1` (stereo unspecified), the AC50 in [6] is 33.4 µM (active).

Turning to `Cc1cc(C(=O)N/N=C/C=C/c2ccc([N+](=O)[O-])cc2)[nH]n1`, the IC50 in [7] is 155 µM (inactive).

Consider `COc1ccccc1-c1cc2nc(-c3ccccc3)cc(N3CCN(C(=O)c4ccoc4)CC3)n2n1`, for which the IC50 in assay [8] is > 79 µM (inactive). Also, the figures for the EC50 in assay [9] and in assay [10] were 0.34 µM (active) and 2.7 µM (active), respectively.

With `O=C(O)c1ccc2c(c1)C(=O)N(c1cccc(-c3nc4ccccc4s3)c1)C2=O`, the IC50 was 50 µM (inactive) in assay [11]; 7.07 µM (active) in assay [12]; 6.24 µM (active) in [13]; 8.03 µM (active) in [14]; 6.02 µM (active) in assay [15]; 35.6 µM (inactive) in assay [16].

For the molecule `COc1ccc(OC)c2nc3c(C(=O)NCCN(C)C)cccc3nc12`, the EC50 in assay [17] is 46.5 µM (inactive); in assay [18] it was 10.2 µM (inactive); in assay [19], > 91.1 µM (inactive); in [21], > 6.63 µM (active); in assay [22], > 59.7 µM (inactive). The AC50 in [20] is 0.59 µM (active).

For `Cc1cccc(N=C(S)NN(Cc2ccccc2)c2ccccc2)c1C`, in [23], the AC50 was > 52 µM (inactive).

On to `C[C@H]1CCCCO[C@H](CN(C)Cc2ccc3c(c2)OCO3)[C@@H](C)CN([C@@H](C)CO)C(=O)c2cc(NC(=O)Nc3cccc4ccccc34)ccc2O1`, for which the AC50 in [24] and in assay [25] was 10 µM (active) each time.

For the molecule `C[C@H]1CN([C@@H](C)CO)C(=O)c2cccc(NC(=O)Nc3ccc(C(F)(F)F)cc3)c2O[C@H]1CN(C)Cc1ccc(Cl)c(Cl)c1`, the AC50 in assay [26] was 13.6 µM (active).

Consider `Sc1nnc(COc2ccccc2)n1-c1ccc(Cl)cc1`, for which, in assay [27], the IC50 is > 122 µM (inactive).

In the case of `CC(C)C(=O)Nc1ccc(C(=O)NNC(=S)NC(=O)c2ccccc2[N+](=O)[O-])cc1`, the IC50 in [28] was > 94.1 µM (inactive).

In the case of `C[C@H](CO)N1C[C@H](C)[C@H](CN(C)C(=O)Nc2cccc3ccccc23)OCCCC[C@H](C)Oc2ccc(NC(=O)CCC(F)(F)F)cc2C1=O`, the AC50 in assay [29] is 35 µM (active); in assay [30], 4.02 µM (active); in assay [31], 2.95 µM (active).
